Data taken from US10175256B2, “Compositions and methods utilizing lysophosphatidylcholine scaffolds” (National University Of Singapore, priority 2013, dated 2019).
Values joined by “and” are separate entries in the source; they are usually repeats but may differ in a detail not shown here. Equal entries are not always repeated.

Legend:
mouse Mfsd2a [1] = molecular target: T1, mouse Mfsd2a (Mus musculus, UniProt Q9DA75); test: Cell-based free fatty acid transport/uptake in Mfsd2a expressing HEK293 cells (mass spectrometry, TLC; Table 1); settings: replicate columns; for Amount of lipid species, mol percent in total phospholipid analysed / Amount of each lipid species normalized to internal standard, mol percent in total phospholipid analysed: Mfsd2a expressing HEK293 cells
T1 construct: expressed in transfected cells; host or cells: HEK293
T1 sequence (Q9DA75 1-534): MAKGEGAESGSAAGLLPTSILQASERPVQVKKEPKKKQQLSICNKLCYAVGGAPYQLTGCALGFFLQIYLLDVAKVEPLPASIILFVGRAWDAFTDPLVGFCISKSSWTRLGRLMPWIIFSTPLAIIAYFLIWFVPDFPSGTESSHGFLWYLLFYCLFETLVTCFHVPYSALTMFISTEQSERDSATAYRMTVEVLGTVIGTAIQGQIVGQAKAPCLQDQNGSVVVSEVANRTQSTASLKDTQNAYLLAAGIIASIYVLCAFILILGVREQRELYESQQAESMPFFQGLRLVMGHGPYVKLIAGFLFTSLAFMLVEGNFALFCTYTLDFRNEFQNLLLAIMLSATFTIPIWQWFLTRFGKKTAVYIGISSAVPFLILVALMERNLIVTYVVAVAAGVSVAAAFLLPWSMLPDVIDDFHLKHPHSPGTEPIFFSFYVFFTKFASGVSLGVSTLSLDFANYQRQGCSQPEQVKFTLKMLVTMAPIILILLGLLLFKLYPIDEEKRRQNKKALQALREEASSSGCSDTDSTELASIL
Method: (§1) FIG. 12. […] Std: free [^14C]-DHA. b. TLC analysis of phospholipids and neutral lipids of HEK293 cells transfected with mouse Mfsd2a and mutants after overnight incubation with 100 μM [^14C]-oleate. TLC protocol used was described in Methods. PC: phosphatidylcholine, PE: phosphatidylethanolamine, TAG: triglyceride, CE: cholesteryl ester.
(§2) For tissue lipid analysis, brain, liver, and heart of female WT and KO mice with age of 7-8 weeks born to HET mothers, and brains from e18.5 embryos were collected and immediately frozen with liquid nitrogen until extraction. Lipid extraction was followed by chloroform/methanol method. For cell-based free fatty acid transport, lipids from HEK293 cells expressing mouse Mfsd2a and mock controls after overnight treatment with 100 μM docosahexaenoic, arachidonic, eicosapentaenoic, alpha-linolenic, linoleic, oleic, palmitic acids in BSA complex were extracted using HIP buffer (hexane:iso-propanol 3:2, per volume) and dried under N2 gas. Phospholipid species were measured by high performance liquid chromatography (HPLC) 1100 system (Agilent) coupled with an Triple Quadrupole/Ion Trap mass spectrometer (4000Qtrap, Applied Biosystem). Levels of individual phospholipid species were analyzed as described previously and quantified using spiked internal standards that includes PC-14:0/14:0, PE-14:0/14:0, PS-14:0/14:0 (Avanti Polar Lipids, Alabaster, Ala., USA), and dioctanoyl PI (Echelon Biosciences, Inc., Salt Lake City, Utah, USA).

mouse Mfsd2a [2] = test: as above; settings: MS, replicate columns; for Amount of each lipid species normalized to internal standard, mol percent in total phospholipid analysed / Amount of lipid species, mol percent in total phospholipid analysed: mock HEK293 cells
Method: as §1, §2

[3] = Mfsd2a expressing HEK293 cells incubated with 100 uM Arachidonic fatty acid/BSA complex overnight, MS
[4] = 100 uM Alpha-linolenic fatty acid/BSA complex overnight
[5] = 100 uM Linoleic fatty acid/BSA complex overnight
[6] = 100 uM Docosahexaenoic acid/BSA complex overnight, MS
[7] = 100 uM Eicosapentaenoic acid/BSA complex overnight, MS
[8] = 100 uM Oleic fatty acid/BSA complex overnight, MS
[9] = mock HEK293 cells incubated with 100 uM Arachidonic fatty acid/BSA complex overnight
[10] = 100 uM Docosahexaenoic acid/BSA complex overnight
[11] = 100 uM Eicosapentaenoic acid/BSA complex overnight
[12] = 100 uM Oleic fatty acid/BSA complex overnight

| Structure (SMILES) | Amount of each lipid species, mol percent in total phospholipid analysed (mouse Mfsd2a [1]; [3]) | Amount of lipid species, mol percent in total phospholipid analysed (mouse Mfsd2a [1]; [4]) | Amount of lipid species, mol percent in total phospholipid analysed (mouse Mfsd2a [1]; [5]) | Amount of each lipid species normalized to internal standard, mol percent in total phospholipid analysed (mouse Mfsd2a [1]; [6]) | Amount of each lipid species normalized to internal standard, mol percent in total phospholipid analysed (mouse Mfsd2a [1]; [7]) | Amount of lipid species, mol percent in total phospholipid analysed (mouse Mfsd2a [1]; [8]) | Amount of each lipid species, mol percent in total phospholipid analysed (mouse Mfsd2a [2]; [9]) | Amount of each lipid species normalized to internal standard, mol percent in total phospholipid analysed (mouse Mfsd2a [2]; [10]) | Amount of each lipid species normalized to internal standard, mol percent in total phospholipid analysed (mouse Mfsd2a [2]; [11]) | Amount of lipid species, mol percent in total phospholipid analysed (mouse Mfsd2a [2]; [12]) | Amount of each lipid species, mol percent in total phospholipid analysed (mouse Mfsd2a [1]; Mfsd2a expressing HEK293 cells incubated with 100 uM Eicosapentaenoic fatty acid/BSA complex overnight, MS) | Amount of lipid species, mol percent in total phospholipid analysed (mouse Mfsd2a [1]; 100 uM Linoleic fatty acid/BSA complex overnight, MS) | Amount of each lipid species, mol percent in total phospholipid analysed (mouse Mfsd2a [2]; mock HEK293 cells incubated with 100 uM Eicosapentaenoic fatty acid/BSA complex overnight) | Amount of lipid species, mol percent in total phospholipid analysed (mouse Mfsd2a [2]; [5]) |
| --- | --- | --- | --- | --- | --- | --- | --- | --- | --- | --- | --- | --- | --- | --- |
| CCCCCCCCCCCCCCCC(=O)OC[C@@H](O)COP(=O)(O)OCCN [LysoPE16:0] | 0.1468 mol percent and 0.08379 mol percent and 0.1077 mol percent and 0.1337 mol percent | 0.1381 mol percent and 0.2428 mol percent and 0.2355 mol percent and 0.07619 mol percent | 0.03967 mol percent and 0.1018 mol percent and 0.06313 mol percent and 0.02483 mol percent | 0.08329 mol percent and 0.03847 mol percent and 0.07102 mol percent and 0.05717 mol percent | 0.09357 mol percent and 0.09693 mol percent and 0.09655 mol percent and 0.07626 mol percent | 0.04601 mol percent and 0.01705 mol percent and 0.1151 mol percent and 0.08973 mol percent | 0.08991 mol percent and 0.08319 mol percent and 0.0827 mol percent | 0.06318 mol percent and 0.083 mol percent and 0.06994 mol percent | 0.06426 mol percent and 0.1796 mol percent and 0.1079 mol percent | 0.056 mol percent and 0.03411 mol percent and 0.06706 mol percent | – | – | – | – |
| CCCCCCCCCCCCCCCCCC(=O)OC[C@@H](O)COP(=O)([O-])OCC[N+](C)(C)C [LysoPC18:0] | 0.006865 mol percent and 0.00639 mol percent and 0.005642 mol percent and 0.008281 mol percent | 0.008875 mol percent and 0.009786 mol percent and 0.00943 mol percent and 0.009646 mol percent | 0.006967 mol percent and 0.006454 mol percent and 0.007395 mol percent and 0.006903 mol percent | 0.009464 mol percent and 0.008616 mol percent and 0.009301 mol percent and 0.008257 mol percent | 0.006896 mol percent and 0.007974 mol percent and 0.005812 mol percent and 0.007684 mol percent | 0.005262 mol percent and 0.005101 mol percent and 0.005659 mol percent and 0.004823 mol percent | 0.006849 mol percent and 0.006628 mol percent and 0.006426 mol percent | 0.008486 mol percent and 0.008947 mol percent and 0.009444 mol percent | 0.006911 mol percent and 0.007615 mol percent and 0.006374 mol percent | 0.005105 mol percent and 0.004638 mol percent and 0.005658 mol percent | – | – | – | – |
| CCCCCCCCCCCCCC/C=C\OC[C@@H](O)COP(=O)(O)OCCN [Lyso PE16:0p] | – | 3.296 mol percent and 3.844 mol percent and 2.809 mol percent and 2.876 mol percent | 1.997 mol percent and 3.121 mol percent and 2.462 mol percent and 2.098 mol percent | 3.182 mol percent and 3.1158 mol percent and 3.231 mol percent and 3.697 mol percent | 2.495 mol percent and 3.134 mol percent and 3.766 mol percent and 2.379 mol percent | 2.254 mol percent and 2.591 mol percent and 2.664 mol percent and 2.476 mol percent | – | 2.843 mol percent and 2.772 mol percent and 2.42 mol percent | 3.984 mol percent and 3.09 mol percent and 2.343 mol percent | 3.062 mol percent and 2.456 mol percent and 2.052 mol percent | – | – | – | – |
| CCCCCCCCCCCCCCCCOC[C@@H](O)COP(=O)([O-])OCC[N+](C)(C)C [LysoPC16:0e] | 0.008218 mol percent and 0.00827 mol percent and 0.009441 mol percent and 0.01026 mol percent | 0.004349 mol percent and 0.003802 mol percent and 0.005532 mol percent and 0.004823 mol percent | 0.004905 mol percent and 0.004227 mol percent and 0.005291 mol percent and 0.006453 mol percent | 0.005111 mol percent and 0.004575 mol percent and 0.004499 mol percent and 0.004664 mol percent | 0.005369 mol percent and 0.005332 mol percent and 0.003584 mol percent and 0.004376 mol percent | 0.002972 mol percent and 0.00261 mol percent and 0.002228 mol percent and 0.001403 mol percent | 0.008219 mol percent and 0.01198 mol percent and 0.009457 mol percent | 0.005025 mol percent and 0.003881 mol percent and 0.00548 mol percent | 0.00417 mol percent and 0.00451 mol percent and 0.003651 mol percent | 0.003153 mol percent and 0.001998 mol percent and 0.003294 mol percent | – | – | – | – |
| CCCCCCCCCCCCCCCC(=O)OC[C@@H](O)COP(=O)(O)O[C@@H]1[C@H](O)[C@H](O)[C@@H](O)[C@H](O)[C@H]1O [LP116:0] | – | – | – | 0.003896 mol percent and 0.00362 mol percent and 0.004663 mol percent and 0.002596 mol percent | – | – | – | 0.003621 mol percent and 0.004425 mol percent and 0.003813 mol percent | – | – | – | – | – | – |
| CCCCCCCCCCCCCCCC(=O)OC[C@@H](O)COP(=O)(O)OC1[C@H](O)[C@H](O)C(O)[C@H](O)[C@H]1O (some centres unmarked) [LPI16:0] | – | 0.002614 mol percent and 0.002235 mol percent and 0.003861 mol percent and 0.003103 mol percent | – | – | – | 0.003305 mol percent and 0.002531 mol percent and 0.002415 mol percent and 0.003238 mol percent | – | – | – | 0.003369 mol percent and 0.003584 mol percent and 0.002627 mol percent | 0.00427 mol percent and 0.002996 mol percent and 0.00331 mol percent and 0.004891 mol percent | 0.002421 mol percent and 0.002583 mol percent and 0.004097 mol percent and 0.003665 mol percent | 0.004685 mol percent and 0.004731 mol percent and 0.003589 mol percent | 0.003029 mol percent and 0.004291 mol percent and 0.00407 mol percent |
